# Source: US20170224662A1 (priority 2016, published 2017)
# Like-named read-outs stand apart in the source and are kept apart here.
# Legend:
# physchem = format: physicochemical; conditions: thermodynamic from solid
# Protocol: A study was conducted to evaluate whether buffer concentration affects the maximum solubility of CPMM. […] The solutions were prepared and CPMM was added until saturation was achieved. The pH was controlled by continually titrating the solutions to pH 6 using NaOH. Saturation was determined to have been achieved after the pH had stabilized and undissolved remained in the vial after overnight shaking. Solubility was evaluated by taking two separate samplings over the course of two days to verify that saturation had been achieved. Solubility was measured when the formulations were at room temperature, as well as tested when the formulations were under sub-ambient conditions (2-8° C.) to evaluate whether the solubility would be affected at lower temperatures for long term storage at (2-8° C.).
# [1] = 1- and 2-week accelerated stability of CPMM (~0.3 mg/mL) in aqueous pH buffer media, HPLC purity; format: physicochemical; conditions: for CPMM % Purity: t = 0
# Protocol: The aqueous CPMM pH 1-9 samples described above were diluted as necessary to approximately 0.3 mg/mL and placed on accelerated stability at 25° C./60% relative humidity and 40° C./75% relative humidity conditions for two weeks. Samples were pulled at t=0, 1, and 2 weeks from set-up, and analyzed by HPLC. Samples were diluted to approximately 0.3 mg/mL, which well below the HPLC method nominal concentration, due to concerns of precipitation during the two week stability study. The injection volume was increased to compensate for the lower drug concentration in solution. The change in CPMM purity over the study duration is listed in Table 3 and plotted in FIGS. 3-5.
# The pH 1 sample was placed on stability at a non-diluted concentration due to an error. This sample was re-diluted at the one-week time point to match the concentration in the pH 2-9 samples and re-placed on stability. The pH 9 sample results were not included in FIGS. 3-5 due to excessive degradation and for easier visual assessment over the more relevant pH 2-8 range.
smiles,measurement,setting,value
"COC(=O)C1(OC(=O)c2cncn2[C@H](C)c2ccccc2)CC1 [CPMM, 1-(methoxycarbonyl)cyclopropyl-1-[(1R)-1-phenylethyl]-1H-imidazole-5-carboxylate]",solubility,"physchem; 2 °C, pH 6.02, aqueous with cosolvent or surfactant or cyclodextrin, 10% SBECD in 25 mM Citrate, 2-8° C./ambient RH, pH 6.02, read-out: CPMM Amount (maximum solubility)",5590 µg/mL
same,solubility,"physchem; 2 °C, pH 6.05, aqueous with cosolvent or surfactant or cyclodextrin, 10% SBECD in 10 mM Citrate, 2-8° C./ambient RH, pH 6.05, read-out: CPMM Amount (maximum solubility)",5480 µg/mL
same,solubility,"physchem; pH 5.96, aqueous buffer, 10 mM Citrate, RT/Ambient RH, pH 5.96, read-out: CPMM Amount (maximum solubility)",300 µg/mL
same,solubility,"physchem; pH 5.98, aqueous buffer, 50 mM Citrate, RT/Ambient RH, pH 5.98, read-out: CPMM Amount (maximum solubility)",230 µg/mL
same,solubility,"physchem; pH 5.98, aqueous with cosolvent or surfactant or cyclodextrin, 10% SBECD in 10 mM Citrate, RT/Ambient RH, pH 5.98, read-out: CPMM Amount (maximum solubility)",5470 µg/mL
same,solubility,"physchem; pH 5.98, aqueous with cosolvent or surfactant or cyclodextrin, 10% SBECD in 25 mM Citrate, RT/Ambient RH, pH 5.98, read-out: CPMM Amount (maximum solubility)",5490 µg/mL
same,solubility,"physchem; pH 5.99, aqueous with cosolvent or surfactant or cyclodextrin, 10% SBECD in 50 mM Citrate, RT/Ambient RH, pH 5.99, read-out: CPMM Amount (maximum solubility)",5680 µg/mL
same,solubility,"physchem; pH 6, aqueous buffer, 25 mM Citrate, RT/Ambient RH, pH 6.00, read-out: CPMM Amount (maximum solubility)",280 µg/mL
same,solubility,"physchem; pH 6, aqueous buffer, citrate solutions containing no SBECD, read-out: solubility",~300 µg/mL
same,solubility,"physchem; pH 6, aqueous with cosolvent or surfactant or cyclodextrin, 10% SBECD solutions at all citrate concentrations, regardless of the condition, read-out: solubility",~5500 µg/mL
same,CPMM % Purity,[1]; 50 mM buffer pH 2 (Phosphoric Acid),99.39%
same,CPMM % Purity,[1]; 50 mM buffer pH 3 (Phosphoric Acid),99.33%
same,CPMM % Purity,[1]; 50 mM buffer pH 4 (Citric Acid),98.59%
same,CPMM % Purity,[1]; 50 mM buffer pH 5 (Citric Acid),97.77%
same,CPMM % Purity,[1]; 50 mM buffer pH 6 (Citric Acid),97.55%
same,CPMM % Purity,[1]; 50 mM buffer pH 7 (Phosphoric Acid),98.16%
same,CPMM % Purity,[1]; 50 mM buffer pH 8 (Phosphoric Acid),98.32%
same,CPMM % Purity,[1]; 50 mM buffer pH 9 (Boric Acid),94.98%
same,Change in CPMM % Purity,"[1]; pH 5 (Citric Acid), 25° C./60% RH, t = 1 week",−0.62%
same,Change in CPMM % Purity,"[1]; pH 5 (Citric Acid), 25° C./60% RH, t = 2 week",−1.06%
same,Change in CPMM % Purity,"[1]; pH 5 (Citric Acid), 40° C./75% RH, t = 1 week",−2.16%
same,Change in CPMM % Purity,"[1]; pH 5 (Citric Acid), 40° C./75% RH, t = 2 week",−3.48%
same,Change in CPMM % Purity,"[1]; pH 6 (Citric Acid), 25° C./60% RH, t = 1 week",−0.33%
same,Change in CPMM % Purity,"[1]; pH 6 (Citric Acid), 25° C./60% RH, t = 2 week",−0.55%
same,Change in CPMM % Purity,"[1]; pH 6 (Citric Acid), 40° C./75% RH, t = 1 week",−2.72%
same,Change in CPMM % Purity,"[1]; pH 6 (Citric Acid), 40° C./75% RH, t = 2 week",−3.49%
same,Change in CPMM % Purity,"[1]; pH 7 (Phosphoric Acid), 25° C./60% RH, t = 1 week",−0.39%
same,Change in CPMM % Purity,"[1]; pH 7 (Phosphoric Acid), 25° C./60% RH, t = 2 week",−0.96%
